According to patent US20210196652A1, “USE OF CYSTEAMINE AND DERIVATIVES THEREOF TO TREAT DYSFUNCTIONAL TEAR SYNDROME (DTS)” (MESHABERASE, LLC, priority 2019, published 2021):

What was measured:
[1] = cited from earlier work
[2] = Schirmer test (filter paper strip in lower fornix) in treated DTS patients; format: in vivo, human; settings: MMP-positive patients (Patients 1 and 3)
Excerpt: (§1) Sterile ocular cysteamine drops with a concentration of 0.44% were used in a dosage schedule of one drop per eye, four times per day.
(§2) Four patients were self-treated with cysteamine ocular drops as described above for 30-37 days. Patients were requested to fill out a diary sheet daily and to return weekly for follow-up. Three of the four patients filled out the diary that included a 3-point Likert scale of symptoms, number of times drops were used daily, and a space for other comments. […] Patients were tested for MMP using the INFLAMMADRY test (see Kaufman) and the Schirmer test (in which a filter paper strip is placed in the lower fornix of the eyelid to absorb tears), with and without anesthesia, using Oxford grading (observation of conjunctiva and cornea using BIO-GLO fluorescein strips) at entry, and Schirmer with and without anesthesia on the final visit.

[3] = Self-treatment of dysfunctional tear syndrome patients with cysteamine ocular drops: symptom diary (3-point Likert scale), weekly interviews, patient reports; format: in vivo, human
Excerpt: as §1, §2
Four patients (Patients 1, 2, 3, and 4) were tested. […] Among the patients testing MMP-positive, there was an improvement in Likert-scale and other comments. […] Patients 1 and 3 returned for 4 weekly visits; Patient 2 returned for 5 weekly visits.
Patient 4 was not tested for MMP, but presented with symptoms of DTS, including years of pain and poor response to other treatments. On the theory the MMP is involved or a causative factor in recurrent epithelial erosion and dry eye, they were treated using the same regimen noted above for Patients 1, 2, and 3. Following treatment, Patient 4 reports being “cured,” and is apparently free of significant symptoms.

[4] = administered for conditions such as cystinosis; available cysteamine products; cited from earlier work
[5] = test system: intracellular cystine levels in circulating leukocytes; settings: cited from earlier work
[6] = children with cystinosis, enteral administration

SMILES: NCCS [cysteamine, Cysteamine (HS—CH2—CH—2—NH2)]
- unpleasant side effects ([1]; high systemic dosing levels and frequencies, CYSTAGON package insert): gastrointestinal distress and body odor
- metabolism and clearance from the body ([1]; systemic administration): converted to taurine in a matter of hours
- Schirmer tests at the end of the study [2]: improvement in Schirmer tests
- objective and subjective symptoms of Dry Eye Disease (DTS, dry eye, keratitis sicca) ([3]; MMP positive patients, 0.44% drops, one drop per eye, four times per day): decreases
- Likert-scale (3-point scale of symptoms) and other diary comments ([3]; MMP-positive patients (Patients 1 and 3), 0.44% drops four times per day, 30-37 days): improvement
- symptoms reported at interview during each weekly visit ([3]; MMP-positive patients (Patients 1 and 3), FIGS. 1 and 2): changes in symptoms indicative of improvement
- need for artificial tears after starting treatment ([3]; Patient 2, MMP-negative): able to go without artificial tears for a majority of the four weeks
- 3-point Likert scale of symptoms ([3]; Patient 2, MMP-negative, no objective findings of DTS): did not report changes
- patient-reported outcome following treatment ([3]; Patient 4, not tested for MMP, recurrent epithelial erosion and dry eye, same regimen): cured
- ocular adverse effects [4]: slinging and stippling erosion of the cornea
- intracellular cystine levels in circulating leukocytes ([5]; Dohil et al. 2006): lowering of intracellular cystine levels
- lowering of leukocyte cystine levels [5, 6]: prolonged efficacy
- plasma cysteamine levels [5, 6]: increased plasma cysteamine levels
